Measured values reported in patent US20190099414A1, “THERAPEUTIC COMPOSITIONS AND METHODS” (UNIVERSITY OF IOWA RESEARCH FOUNDATION, priority 2015, published 2019).

Assays:
[1] = test system: rabbit joint capsule fibroblasts; assay: Collagen gel compaction assay; format: cell-based; conditions: collagen gel seeded with rabbit joint capsule fibroblasts; final blebbistatin concentration 50 μg/mL, treated 24 hours, imaged up to 48 hours
Protocol: The effect of blebbistatin on rabbit joint capsule fibroblasts (RJCF) was analyzed using a collagen gel compaction assay. RJCFs between passage 4 and 9 were trypsinized using 0.1% trypsin/EDTA for 5 minutes at 37° C. and then the added trypsin was neutralized using DMEM containing 10% FBS. The cell suspension was centrifuged at 230 g for 5 minutes and resuspended in a desired volume of 10% FBS containing DMEM. The collagen gels loaded with RJCFs were prepared by mixing 10×PBS containing phenol red, 1N NaOH, rat tail collagen-I, and the cell suspension to give a final yield of 1×10^6 cells/mL and 2 mg/mL collagen. 500 μL of the collagen gel mixture was added to each well in a 24 well plate and allowed to gelate for 30 minutes in an incubator. After 30 minutes 500 μL of DMEM containing 10% FBS and 50 μg/mL ascorbic acid was added to each well and incubated for 24 hours. After 24 hours, 2.5 mg of blank and blebbistatin loaded nanoparticles dispersed in 50 μL of DMEM or 50 μL of pure drug dissolved in DMSO (1 mg/mL) or 50 μL DMSO or 50 μL PBS were added to each gel so that the final blebbistatin concentration was 50 μg/mL or a corresponding solvent volume for controls. […] Images were acquired at 0, 0.15, 0.5, 1, 2, 3, 4, 5, 6, 7, 24 and 48 hours, and the amount of compaction was measured with ImageJ.

Rho/ROCK pathway = assay: Real time PCR analysis of Rho/ROCK pathway gene expression; format: cell-based; conditions: rabbit joint capsule fibroblasts in collagen gels; 50 μg/mL blebbistatin; 0, 5, 24 and 48 hours; versus blank PLGA particle control
Protocol: Inhibition of Rho/ROCK pathway in RJCFs by blebbistatin nanoparticle was studied using quantitative real-time PCR (qPCR) Two groups of collagen gels were prepared in the same way as described in the collagen gel compaction assay. One group of gels (n=3) was treated with 2.5 mg of blebbistatin nanoparticles dispersed in 50 μL of DMEM so that the final concentration of blebbistatin was 50 μg/mL. The other control group gels (n=3) were also treated in the same way but instead with blank PLGA particles. Measurements were made at four terminal time points of 0, 5, 24 and 48 hours. After each time point the gels were washed twice with DMEM and stored at −80° C. for qPCR analysis.
Total cell RNA was extracted with an RNeasy Mini Kit (Qiagen, Valencia, Calif., USA), by following the manufacturer's protocol. Cells were then homogenized (QIAshredder column, Qiagen), and using an RNeasy column, total RNA was eluted out. The quantity and the quality of the isolated RNA were measured from the absorbance at A260 nm and the ratio of A260/A280 respectively. […] Steady-state mRNA levels were normalized to 18s rRNA and calculated relative to untreated controls by “the relative quantitation using comparative CT” in Multiplex Reactions (PerkinElmer).

[2] = test system: rabbit joint capsule fibroblasts; assay: Fluorescent microsphere displacement assay with time-lapse imaging; format: cell-based
Protocol: The effect of blebbistatin on cell ability to compact gels was analyzed by monitoring the displacement of fluorescent microspheres. Cell seeded collagen gels were prepared as described above with the addition of a suspension of fluorescent 4 μm microspheres to achieve a concentration of 5 million microspheres/mL. Approximately, 500 μL of this solution were then carefully added around a 6 mm polydimethysiloxane (PDMS) post in a circular PDMS mold with a 20 mm diameter attached to a 35 mm glass bottom Petri dish. This construct was prepared with the purpose of preventing movement of the gel during imaging, after release. Gels were then incubated at 37° C. for 30 minutes to allow polymerization. Once the gels had polymerized, DMEM supplemented with 10% FBS, 1% Penicillin/Streptomyocin, and 0.1% Amphoterecin B was added. After incubation for 24 hours, the gels were treated with either blebbistatin PLGA particles or with blank PLGA particles for 24 hours. Gels were carefully detached from the surrounding PDMS mold and were rinsed twice using DMEM. […] Microsphere displacements were quantified by use of a custom algorithm using digital image correlation to track the movement of individual particles from frame to frame.

[3] = Raman spectroscopy and differential scanning calorimetry of drug-loaded particles; format: physicochemical; conditions: Raman shifts and DSC melting point unchanged after loading
Protocol: Confocal Raman spectroscopy was used to characterize the distribution of blebbistatin in the PLGA nanoparticles. Spectra of pure blebbistatin, pure PLGA, blank nanoparticles, and blebbistatin loaded nanoparticles were produced with the 488 nm line of an Ar+ laser (Coherent, Inova 70, 30 mW). After autoalignment of the instrument, the laser beam was focused on the samples using an inverted optical microscope equipped with a 50× objective lens. Spectra were recorded between 80 cm^−1 to 1300 cm^−1 at high resolution. Spectra were spatially resolved at each pixel by passing the backscattered image of the Ar+ laser through a pinhole of diameter 100 μm onto a cooled CCD camera.
Differential scanning calorimetry was employed to analyze the solid state and thermal properties of the nanoparticles. Approximately 2 mg of either lyophilized blank PLGA nanoparticles or drug-loaded PLGA nanoparticles were weighed and hermetically sealed into aluminum pans. An empty aluminum pan was used as a reference. Sample were heated from 25° C. to 300° C. at a rate of 10° C./min under a stream of nitrogen gas flow to produce thermograms for extracting the transition temperature (Tc) and enthalpy of transition (AH).

Compound: Cc1ccc2c(c1)C(=O)C1(O)CCN(c3ccccc3)C1=N2 (centres unmarked) [blebbistatin, Blebbistatin]
- gel area after compaction [1]: 87%±1%
- RhoA, ROCK1 and ROCK2 gene expression (qPCR) (Rho/ROCK pathway): initial increase in RhoA, ROCKI, and ROCK II genes treated with blebbistatin that then decrease to comparable levels as control
- fluorescent microsphere displacements (cell force generation) ([2]; cell-seeded collagen gels treated 24 hours, compared with control gels): significantly lower
- fibroblast morphology (time-lapse imaging) ([2]; fibroblasts in collagen gels, compared with untreated gels): more spherical fibroblasts
- stability of the drug after loading into the particles [3]: stable and no significant physical/chemical changes occurred
